Assay results from ChEMBL document CHEMBL1130522, “Orevactaene,1 a novel binding inhibitor of HIV-1 rev protein to Rev response element (RRE) from Epicoccum nigrum WC47880” (Bioorg Med Chem Lett, 1997).

Columns and labels:
[1] = Inhibitory activity towards HIV-I regulatory protein Rev and its viral RNA-binding site, Rev response element (RRE) binding
M109 = assay: The compound was tested for its cytotoxicity on the murine tumor cell line M109; assay type: functional, cell-based; conditions: Mus musculus

IC50 [1]: 3.6 µM
SMILES: CCC(C)CC(C)/C=C(/C=C(C)/C=C/C=C/C=C/C=C/C=C/c1cc2c(c(=O)o1)[C@H](O)[C@@H](O)[C@H](C(O)C(O)CO)O2)C(=O)O (some centres not stated)
IC50 (M109): 82 µM
